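All cell lines were grown in 96-well plates and treated with compound for 48 hours. Here, GI50 denotes the concentration required for 50% inhibition of growth.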 Activity calls are given as the source filed them. No stated cut-off is given here; in the data, active = GI50 up to about 1.1 µM and inactive = higher.
Legend:
Assay in all cases: NCI-60 cell line screen, 48 h
[1] = test system: ACHN
[2] = test system: COLO 205
[3] = test system: DU-145
[4] = test system: EKVX
[5] = test system: HOP-62
[6] = test system: HOP-92
[7] = test system: IGROV-1
[8] = test system: NCI-H460
[9] = test system: NCI/ADR-RES
[10] = test system: OVCAR-4
[11] = test system: OVCAR-5
[12] = test system: PC-3
[13] = test system: SF-268
[14] = test system: SK-OV-3
[15] = test system: SNB-19
[16] = test system: SNB-75
[17] = test system: SW-620
[18] = test system: TK-10
[19] = test system: U-251
[20] = test system: UO-31

## CC(C)(C)COC(=O)C(C)(C)NC(=O)C(CC(=O)OCc1ccccc1)NC(=O)OCc1ccccc1 (stereo not given)
[1]
  GI50: 32.9 µM (inactive)
[2]
  GI50: 21 µM (inactive)
[3]
  GI50: 62.2 µM (inactive)
[4]
  GI50: 54.3 µM (inactive)
[5]
  GI50: 75 µM (inactive)
[6]
  GI50: 53.1 µM (inactive)
[7]
  GI50: 61 µM (inactive)
[8]
  GI50: 30 µM (inactive)
[9]
  GI50: 36.8 µM (inactive)
[10]
  GI50: 50.5 µM (inactive)
[11]
  GI50: 26.8 µM (inactive)
[12]
  GI50: 25.7 µM (inactive)
[13]
  GI50: 87.1 µM (inactive)
[14]
  GI50: 35.4 µM (inactive)
[15]
  GI50: 38.3 µM (inactive)
[16]
  GI50: 13.9 µM (inactive)
[17]
  GI50: 60.4 µM (inactive)
[18]
  GI50: 19.4 µM (inactive)
[19]
  GI50: 31.5 µM (inactive)
[20]
  GI50: 24 µM (inactive)

## CO/N=C/c1c(-c2ccc(Cl)cc2)c(/C=N/OC)n2c1sc1ccccc12
[1]
  GI50: > 100 µM (inactive)
[2]
  GI50: > 100 µM (inactive)
[3]
  GI50: > 100 µM (inactive)
[4]
  GI50: > 100 µM (inactive)
[5]
  GI50: > 100 µM (inactive)
[6]
  GI50: 8.49 µM (inactive)
[7]
  GI50: > 100 µM (inactive)
[8]
  GI50: > 100 µM (inactive)
[9]
  GI50: > 100 µM (inactive)
[10]
  GI50: 83 µM (inactive)
[11]
  GI50: > 100 µM (inactive)
[12]
  GI50: > 100 µM (inactive)
[13]
  GI50: > 100 µM (inactive)
[14]
  GI50: > 100 µM (inactive)
[15]
  GI50: > 100 µM (inactive)
[16]
  GI50: > 100 µM (inactive)
[17]
  GI50: > 100 µM (inactive)
[18]
  GI50: > 100 µM (inactive)
[19]
  GI50: > 100 µM (inactive)
[20]
  GI50: > 100 µM (inactive)

## S=C1SC(c2ccc(Cl)cc2)(c2ccc(Cl)cc2)c2ccccc21
[1]
  GI50: > 100 µM (inactive)
[2]
  GI50: 80.5 µM (inactive)
[3]
  GI50: 55.1 µM (inactive)
[4]
  GI50: 91.4 µM (inactive)
[5]
  GI50: > 100 µM (inactive)
[6]
  GI50: 44.4 µM (inactive)
[7]
  GI50: > 100 µM (inactive)
[8]
  GI50: > 100 µM (inactive)
[9]
  GI50: > 100 µM (inactive)
[10]
  GI50: > 100 µM (inactive)
[11]
  GI50: > 100 µM (inactive)
[12]
  GI50: 58.6 µM (inactive)
[13]
  GI50: 95.1 µM (inactive)
[14]
  GI50: > 100 µM (inactive)
[15]
  GI50: > 100 µM (inactive)
[16]
  GI50: > 100 µM (inactive)
[17]
  GI50: 68.7 µM (inactive)
[18]
  GI50: > 100 µM (inactive)
[19]
  GI50: > 100 µM (inactive)
[20]
  GI50: > 100 µM (inactive)

## Cc1ccc(NC(=O)C23CC4CC(CC(C4)C2)C3)c(C(=O)NNC(=O)c2ccc(Cl)cc2)c1
[1]
  GI50: 17.5 µM (inactive)
[2]
  GI50: 27.2 µM (inactive)
[3]
  GI50: 27.6 µM (inactive)
[4]
  GI50: 18.5 µM (inactive)
[5]
  GI50: 18.4 µM (inactive)
[6]
  GI50: 9.48 µM (inactive)
[7]
  GI50: < 0.01 µM (active)
[8]
  GI50: 22 µM (inactive)
[9]
  GI50: 21.2 µM (inactive)
[10]
  GI50: 16.7 µM (inactive)
[11]
  GI50: 17.3 µM (inactive)
[12]
  GI50: 23.3 µM (inactive)
[13]
  GI50: 23.8 µM (inactive)
[14]
  GI50: 15.8 µM (inactive)
[15]
  GI50: 1.41 µM (inactive)
[16]
  GI50: < 0.01 µM (active)
[17]
  GI50: 26.2 µM (inactive)
[18]
  GI50: 17.7 µM (inactive)
[19]
  GI50: 17.2 µM (inactive)
[20]
  GI50: 16.5 µM (inactive)

## NS(=O)(=O)c1ccc(NC(=S)N/C=C2\C(=O)Oc3ccccc3C2=O)cc1
[1]
  GI50: 18.3 µM (inactive)
[2]
  GI50: 40.5 µM (inactive)
[3]
  GI50: 27.4 µM (inactive)
[4]
  GI50: 34.1 µM (inactive)
[5]
  GI50: 20.8 µM (inactive)
[6]
  GI50: 15.3 µM (inactive)
[7]
  GI50: 18.9 µM (inactive)
[8]
  GI50: 39.1 µM (inactive)
[9]
  GI50: 31.4 µM (inactive)
[10]
  GI50: 43 µM (inactive)
[11]
  GI50: 54.5 µM (inactive)
[12]
  GI50: 36.1 µM (inactive)
[13]
  GI50: 38.5 µM (inactive)
[14]
  GI50: 26.4 µM (inactive)
[15]
  GI50: 19 µM (inactive)
[16]
  GI50: 4.2 µM (inactive)
[17]
  GI50: 40.1 µM (inactive)
[18]
  GI50: 28.2 µM (inactive)
[19]
  GI50: 36.2 µM (inactive)
[20]
  GI50: 17.6 µM (inactive)

## O=S(=O)(N1CCCCN(S(=O)(=O)C(F)(F)F)CCCN(S(=O)(=O)C(F)(F)F)CCCN(S(=O)(=O)C(F)(F)F)CCCCN(S(=O)(=O)C(F)(F)F)CCCN(S(=O)(=O)C(F)(F)F)CCC1)C(F)(F)F
[1]
  GI50: > 100 µM (inactive)
[2]
  GI50: > 100 µM (inactive)
[3]
  GI50: > 100 µM (inactive)
[4]
  GI50: 72.3 µM (inactive)
[5]
  GI50: 29.7 µM (inactive)
[6]
  GI50: 31 µM (inactive)
[7]
  GI50: 35.6 µM (inactive)
[8]
  GI50: 30.9 µM (inactive)
[9]
  GI50: 53.2 µM (inactive)
[10]
  GI50: > 100 µM (inactive)
[11]
  GI50: > 100 µM (inactive)
[12]
  GI50: > 100 µM (inactive)
[13]
  GI50: 31.1 µM (inactive)
[14]
  GI50: > 100 µM (inactive)
[15]
  GI50: 35.2 µM (inactive)
[16]
  GI50: 37.9 µM (inactive)
[17]
  GI50: > 100 µM (inactive)
[18]
  GI50: 99.5 µM (inactive)
[19]
  GI50: 21.6 µM (inactive)
[20]
  GI50: > 100 µM (inactive)

## CCCCCC(/C=C/C1CCC(=O)C1CC#C[Si](C)(C)C)OCc1ccccc1 (stereo not given)
[1]
  GI50: 17.5 µM (inactive)
[2]
  GI50: 19.2 µM (inactive)
[3]
  GI50: 31.8 µM (inactive)
[4]
  GI50: 16.9 µM (inactive)
[5]
  GI50: 19.1 µM (inactive)
[6]
  GI50: 12.1 µM (inactive)
[7]
  GI50: 14.5 µM (inactive)
[8]
  GI50: 17 µM (inactive)
[9]
  GI50: 14.5 µM (inactive)
[10]
  GI50: 26.9 µM (inactive)
[11]
  GI50: 19.9 µM (inactive)
[12]
  GI50: 17.3 µM (inactive)
[13]
  GI50: 14.3 µM (inactive)
[14]
  GI50: 41.2 µM (inactive)
[15]
  GI50: 28.4 µM (inactive)
[16]
  GI50: 16.6 µM (inactive)
[17]
  GI50: 24 µM (inactive)
[18]
  GI50: 22.1 µM (inactive)
[19]
  GI50: 19 µM (inactive)
[20]
  GI50: 15.5 µM (inactive)
